Measured values reported in ChEMBL document CHEMBL2396565, “An epigenetic modifier enhances the production of anti-diabetic and anti-inflammatory sesquiterpenoids from Aspergillus sydowii” (Bioorg Med Chem, 2013).
Active and inactive are the calls of the source. The rule behind the calls is not given here.

Experiments:
[1] = Antiinflammatory activity in human neutrophils assessed as inhibition of fMLP/CB-induced elastase release after 5 mins by spectrophotometric analysis; type: functional, cell-based; details: Neutrophil
[2] = Antiinflammatory activity in human neutrophils assessed as inhibition of fMLP/CB-induced elastase release at 10 ug/mL after 5 mins by spectrophotometric analysis relative to control; type: functional; details: Neutrophil
[3] = Antiinflammatory activity in human neutrophils assessed as inhibition of fMLP/CB-induced superoxide generation at 10 ug/mL after 5 mins by spectrophotometric analysis relative to control; type: functional; details: Neutrophil
[4] = tested on: 3T3-L1; experiment: Potentiation of insulin-stimulated glucose consumption in mouse 3T3L1 cells at 30 ug/mL after 24 hrs; type: functional, cell-based
[5] = Antiinflammatory activity in human neutrophils assessed as inhibition of fMLP/CB-induced superoxide generation after 5 mins by spectrophotometric analysis; type: functional, cell-based; details: Neutrophil
[6] = tested on: 3T3-L1; experiment: Potentiation of insulin-stimulated glucose consumption in mouse 3T3L1 cells assessed as glucose concentration in culture medium at 30 ug/mL after 24 hrs (reference value: 427.4 mg/dL); type: functional
[7] = tested on: 3T3-L1; experiment: Inhibition of lipid accumulation in mouse 3T3L1 cells at 30 ug/mL after 8 days by Oil red O staining-based microscopic analysis relative to control; type: functional; details: 3T3-L1, 192 h

| Structure (SMILES) | IC50 [1] | IC50 [5] | inhibition at 10 µg/mL [2] | inhibition at 10 µg/mL [3] | Activity [4] | Activity [6] | inhibition at 30 µg/mL [7] |
| --- | --- | --- | --- | --- | --- | --- | --- |
| C/C(=C\CCC(C)CO)c1ccc(CO)cc1O (stereo unspecified) | > 10 mg/L | 21.5 µM | 6.68% | 71.7% | Active |  |  |
| COC(=O)c1cccc2oc3cc(CO)cc(O)c3c(=O)c12 [SYDOWININ A] | > 10 mg/L | > 10 mg/L | 28.7% | 38.1% |  |  |  |
| Cc1cc(O)cc(Oc2cc(C)cc(O)c2)c1 [DIORCINOL] | > 10 mg/L | 12.2 µM | 39.8% | 92% |  |  |  |
| CO[C@@](C)(CCCC(C)C)c1ccc(CO)cc1O [(7S)-(+)-7-O-METHYLSYDONOL] | > 10 mg/L | 13.8 µM | 29.8% | 69% | Active |  |  |
| CC(C)CCC[C@](C)(O)c1ccc(C(=O)O)cc1O | > 10 mg/L | 27.8 µM | 2.56% | 60.2% |  | 381.4 mg/dL |  |
| COC(=O)c1c(O)ccc2oc3cc(CO)cc(O)c3c(=O)c12 [SYDOWININ B] | 12.6 µM | 21.2 µM | 85% | 66.2% |  |  |  |

The next lines start with results.

| IC50 [1] | IC50 [5] | Structure (SMILES) | inhibition at 10 µg/mL [2] | inhibition at 10 µg/mL [3] | Activity [4] | Activity [6] | inhibition at 30 µg/mL [7] |
| --- | --- | --- | --- | --- | --- | --- | --- |
| 5.62 µM | 1.27 µM | CNC(=O)c1cc(Oc2ccc(NC(=O)Nc3ccc(Cl)c(C(F)(F)F)c3)cc2)ccn1 [SORAFENIB] | 83% | 70.9% |  |  |  |
| 6.6 µM | 6 µM | COC(=O)[C@@H]1c2c(oc3cc(CO)cc(O)c3c2=O)C=C[C@H]1O | 98.9% | 102% |  |  |  |
| 8.8 µM | 6.11 µM | C/C(=C\CCC(C)C)c1ccc(CO)cc1O | 84.3% | 97.8% |  |  |  |
| 16.4 µM | 5.23 µM | CC(C)CCC[C@](C)(O)c1ccc(CO)cc1O [(S)-(+)-SYDONOL] | 65.3% | 87% | Active | 324.6 mg/dL | ≤ 48% |
